Measurements published in US20100137303A1, “NEW COMPOUND 255” (AstraZeneca AB, priority 2008, published 2010).
In brackets after ≈: the same amount, converted by molar mass.

Experiments:
[1] = system: M. tuberculosis; assay: Mycobacteria susceptibility testing, Microplate Alamar Blue Assay, Mtu MIC; assay type: cell-based, Mycobacterium tuberculosis (Mtu); settings: for MIC: Mycobacterium tuberculosis
[2] = system: Eco-tolC; assay: Bacterial susceptibility testing in liquid media, Eco-tolC MIC; settings: for MIC: Escherichia coli, read-out: Eco-tolC MIC
Source text: (§1) Compounds may be tested for antimicrobial activity by susceptibility testing in liquid media. Compounds may be dissolved in dimethylsulfoxide and tested in 10 doubling dilutions in the susceptibility assays. The organisms used in the assay may be grown overnight on suitable agar media and then suspended in a liquid medium appropriate for the growth of the organism. The suspension can be a 0.5 McFarland and a further 1 in 10 dilution can be made into the same liquid medium to prepare the final organism suspension in 100 μL. Plates can be incubated under appropriate conditions at 37° C. for 24 hrs prior to reading.

[3] = system: Spn548; assay: Bacterial susceptibility testing in liquid media, Spn548 MIC; settings: Streptococcus pneumoniae, 24 h, read-out: Spn548 Mean MIC
Source text: as §1

[4] = biological target: T1, Msm. GyrB (Mycolicibacterium smegmatis, UniProt A0QNE0); assay: Msmegmatis GyrB enzyme assay (ATPase, malachite green phosphate detection); assay type: biochemical; settings: read-out: Msm_GyrB IC50
T1 construct: 15 nM Msm; GyrB, 650 μM ATP, and compound in dimethyl sulfoxide
Method: Compounds may be tested for inhibition of GyrB ATPase activity using an ammonium molybdate/malachite green-based phosphate detection assay (Lanzetta, P. A., L. J. Alvarez, P. S. Reinach, and O. A. Candia, 1979, 100: 95-97; Innova Biosciences malachite green detection kit). Assays can be performed in multi-well plates in 50 μl reactions containing: 50 mM HEPES buffer pH 7.7, 250 mM potassium glutamate, 200 mM potassium chloride, 2 mM magnesium chloride, 2% glycerol, 1 mM 1,4-Dithio-DL-threitol, 0.005% Brij-35, 15 nM Msm. GyrB, 650 μM ATP, and compound in dimethyl sulfoxide. Reactions can be quenched with 12.5 μl of ammonium molybdate/malachite green detection reagent (Pi color lock gold & accelerator mix; Innova Biosciences), followed by the addition of 5 μl of stabilizer (Innova Biosciences) after 5 min of incubation.

T1 sequence (A0QNE0 whole entry): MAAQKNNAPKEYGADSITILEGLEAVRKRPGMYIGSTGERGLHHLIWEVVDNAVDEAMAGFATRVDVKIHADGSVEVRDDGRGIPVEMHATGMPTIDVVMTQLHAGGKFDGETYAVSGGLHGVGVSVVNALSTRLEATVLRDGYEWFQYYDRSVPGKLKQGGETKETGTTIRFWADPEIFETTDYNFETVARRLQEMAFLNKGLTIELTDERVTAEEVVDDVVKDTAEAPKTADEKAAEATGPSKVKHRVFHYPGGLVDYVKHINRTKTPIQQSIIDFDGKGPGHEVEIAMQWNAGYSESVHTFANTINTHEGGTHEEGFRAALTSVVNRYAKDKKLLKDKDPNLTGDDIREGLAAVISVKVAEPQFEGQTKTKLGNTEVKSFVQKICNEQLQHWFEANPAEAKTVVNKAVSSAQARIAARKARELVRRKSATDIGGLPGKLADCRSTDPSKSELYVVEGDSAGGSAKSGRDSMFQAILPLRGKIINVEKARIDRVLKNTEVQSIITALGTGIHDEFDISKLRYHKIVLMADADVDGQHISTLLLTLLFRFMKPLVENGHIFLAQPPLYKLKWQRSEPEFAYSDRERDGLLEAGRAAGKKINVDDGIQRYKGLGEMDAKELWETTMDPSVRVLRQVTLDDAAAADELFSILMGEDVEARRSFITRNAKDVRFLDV

Compound	MIC [1] [µg/mL]	MIC [2] [µg/mL]	MIC [3] [µg/mL]	IC50 [4] [nM]	Mtu MIC [1] [µg/mL]	Eco-tolC MIC [2] [µg/mL]
C=CCNC(=O)Nc1nc2cc(-c3cncnc3)c(C)nc2s1 [Example 6, 1-Allyl-3-(5-methyl-6-pyrimidin-5-yl-thiazolo [5,4-b]pyridin-2-yl)-urea]	8 (≈ 24.5 µM)	32.3 (≈ 99 µM)	1.01 (≈ 3.09 µM)	151		
CCNC(=O)Nc1nc2cc(-c3cncc(C(=O)O)c3)cnc2s1 [Example 11, 5-[2-(3-Ethyl-ureido)-thiazolo [5,4-b]pyridin-6-yl]-nicotinic acid]	32 (≈ 93.2 µM)	> 34.3	17.2 (≈ 50 µM)	159		
CCNC(=O)Nc1nc2cc(-c3cnn(C)c3)c(OCC3CCOC3)nc2s1 (stereo not shown) [Example 71, 1-ethyl-3-[6-(1-methyl-1H-pyrazol-4-yl)-5-(tetrahydrofuran-3-ylmethoxy)[1,3]thiazolo[5,4-b]pyridin-2-yl]urea]	0.707 (≈ 1.76 µM)	0.5 (≈ 1.24 µM)	0.125 (≈ 0.311 µM)			
C=CCNC(=O)Nc1nc2cc(-c3cncc(C(=O)NCCC(C)C)c3)cnc2s1 [Example 24, N-(3-methylbutyl)-5-{2-[(prop-2-en-1-ylcarbamoyl)amino][1,3]thiazolo[5,4-b]pyridin-6-yl}pyridine-3-carboxamide]	> 64	> 32	> 32	583		
CCNC(=O)Nc1nc2cc(-c3cncnc3)c(N[C@@H](C)C(=O)OCC)nc2s1 [Example 65, Ethyl N-{2-[(ethylcarbamoyl)amino]-6-pyrimidin-5-yl[1,3]thiazolo[5,4-b]pyridin-5-yl}-L-alaninate]	0.125 (≈ 0.301 µM)	4 (≈ 9.63 µM)	0.125 (≈ 0.301 µM)	< 2.54		
C=CCNC(=O)Nc1nc2cc(-c3cncnc3)c(OCC(C)C)nc2s1 [Example 33, 1-[5-(2-methylpropoxy)-6-pyrimidin-5-yl[1,3]thiazolo[5,4-b]pyridin-2-yl]-3-prop-2-en-1-ylurea]	1 (≈ 2.6 µM)	1 (≈ 2.6 µM)	0.0625 (≈ 0.163 µM)	18.4		
CCNC(=O)Nc1nc2cc(-c3ccc(F)nc3)c(OC3C=CCCC3)nc2s1 (stereo not shown) [Example 72, 1-[5-(cyclohex-2-en-1-yloxy)-6-(6-fluoropyridin-3-yl)[1,3]thiazolo[5,4-b]pyridin-2-yl]-3-ethylurea]	2 (≈ 4.84 µM)	0.25 (≈ 0.605 µM)	0.0625 (≈ 0.151 µM)	29.1		
CCNC(=O)Nc1nc2cc(-c3cnc(C#N)nc3)c(OC3CCOC3)nc2s1 (stereo not shown) [Example 75, 1-[6-(2-cyanopyrimidin-5-yl)-5-(tetrahydrofuran-3-yloxy)[1,3]thiazolo[5,4-b]pyridin-2-yl]-3-ethylurea]	< 0.06			< 2.54		
C=CCNC(=O)Nc1nc2cc(-c3cnc(OC)nc3)c(C)nc2o1 [Example 16, 3-allyl-1-[6-(2-methoxypyrimidin-5-yl)-5-methyl-oxazolo[5,4-b]pyridin-2-yl]urea]	> 32	> 32	16 (≈ 47 µM)	1610		
C=CCNC(=O)Nc1nc2cc(-c3cccnc3)c(OCCN3CCOCC3)nc2s1 [Example 28, 1-[5-(2-morpholin-4-ylethoxy)-6-pyridin-3-yl[1,3]thiazolo[5,4-b]pyridin-2-yl]-3-prop-2-en-1-ylurea]	> 22.6	> 32	4 (≈ 9.08 µM)			
CCNC(=O)Nc1nc2cc(-c3cncc(-c4n[nH]c(=O)o4)c3)c(OCC3CCOC3)nc2s1 (stereo not shown) [Example 78, 1-ethyl-3-{6-[5-(5-oxo-4,5-dihydro-1,3,4-oxadiazol-2-yl)pyridin-3-yl]-5-(tetrahydrofuran-3-ylmethoxy)[1,3]thiazolo[5,4-b]pyridin-2-yl}urea]	8 (≈ 16.5 µM)			< 2.54		
CCNC(=O)Nc1nc2cc(-c3cncnc3)c(OC(C)C)nc2s1 [Example 73, 1-ethyl-3-[5-(1-methylethoxy)-6-pyrimidin-5-yl[1,3]thiazolo[5,4-b]pyridin-2-yl]urea]	0.125 (≈ 0.349 µM)			5.2		
CCNC(=O)Nc1nc2cc(-c3cccnc3)c(OCCOC(C)C)nc2s1 [Example 41, 1-ethyl-3-{5-[2-(1-methylethoxy)ethoxy]-6-pyridin-3-yl[1,3]thiazolo[5,4-b]pyridin-2-yl}urea]	2 (≈ 4.98 µM)	5.02 (≈ 12.5 µM)	0.0784 (≈ 0.195 µM)	9.1		
CCNC(=O)Nc1nc2cc(-c3cccnc3)c(OCCOC)nc2s1 [Example 45, 1-ethyl-3-[5-(2-methoxyethoxy)-6-pyridin-3-yl[1,3]thiazolo[5,4-b]pyridin-2-yl]urea]	1 (≈ 2.68 µM)	4.67 (≈ 12.5 µM)	0.292 (≈ 0.781 µM)			
CCNC(=O)Nc1nc2cc(-c3cncnc3)c(OCCOC)nc2s1 [Example 44, 1-ethyl-3-[5-(2-methoxyethoxy)-6-pyrimidin-5-yl[1,3]thiazolo[5,4-b]pyridin-2-yl]urea]	0.25 (≈ 0.668 µM)	1.17 (≈ 3.12 µM)	0.0731 (≈ 0.195 µM)			
CCNC(=O)Nc1nc2cc(-c3cncnc3)c(OCC3CCOC3)nc2s1 (single isomer, unassigned; isomer 1) [Example 68, 1-ethyl-3-[6-pyrimidin-5-yl-5-(tetrahydrofuran-3-ylmethoxy)[1,3]thiazolo[5,4-b]pyridin-2-yl]urea (Chiral isomer 1)]	0.0884 (≈ 0.221 µM)	0.5 (≈ 1.25 µM)	0.125 (≈ 0.312 µM)			
CCNC(=O)Nc1nc2cc(-c3cccnc3)c(OCC3CCOC3)nc2s1 (stereo not shown) [Example 42, 1-ethyl-3-[6-pyridin-3-yl-5-(tetrahydrofuran-3-ylmethoxy)[1,3]thiazolo[5,4-b]pyridin-2-yl]urea]	0.42 (≈ 1.05 µM)	1.25 (≈ 3.12 µM)	0.078 (≈ 0.195 µM)			
C=CCNC(=O)Nc1nc2cc(-c3cccnc3)cnc2s1 [Example 3, 1-allyl-3-[6-(3-pyridyl)thiazolo [5,4-b]pyridin-2-yl] urea]	10.1 (≈ 32.4 µM)	> 64	1 (≈ 3.21 µM)			
CCNC(=O)Nc1nc2cc(-c3ccc(C#N)nc3)c(OCC3CCOC3)nc2s1 (stereo not shown) [Example 54, 1-[6-(6-cyanopyridin-3-yl)-5-(tetrahydrofuran-3-ylmethoxy)[1,3]thiazolo[5,4-b]pyridin-2-yl]-3-ethylurea]	0.177 (≈ 0.417 µM)	1 (≈ 2.36 µM)	0.0625 (≈ 0.147 µM)			
C=CCNC(=O)Nc1nc2cc(Br)c(C)nc2s1 [Example 2, 1-Allyl-3-(6-bromo-5-methyl-thiazolo [5,4-b]pyridin-2-yl)-urea]		32 (≈ 97.8 µM)	> 32	2190		
CCNC(=O)Nc1nc2cc(-c3cncnc3)c(OCC3CCOC3)nc2s1 (single isomer, unassigned; isomer 2) [Example 69, 1-ethyl-3-[6-pyrimidin-5-yl-5-(tetrahydrofuran-3-ylmethoxy)[1,3]thiazolo[5,4-b]pyridin-2-yl]urea (Chiral isomer 2)]					0.08839	0.25
CCNC(=O)Nc1nc2cc(-c3cncc(F)c3)c(OCC3CCOC3)nc2s1 (stereo not shown) [Example 79, 1-ethyl-3-[6-(5-fluoropyridin-3-yl)-5-(tetrahydrofuran-3-ylmethoxy)[1,3]thiazolo[5,4-b]pyridin-2-yl]urea]	0.354 (≈ 0.847 µM)					
CCNC(=O)Nc1nc2cc(-c3cncc(C#N)c3)c(OCC3CCOC3)nc2s1 (stereo not shown) [Example 57, 1-[6-(5-cyanopyridin-3-yl)-5-(tetrahydrofuran-3-ylmethoxy)[1,3]thiazolo[5,4-b]pyridin-2-yl]-3-ethylurea]	0.25 (≈ 0.589 µM)	0.0625 (≈ 0.147 µM)	0.0625 (≈ 0.147 µM)			
CCNC(=O)Nc1nc2cc(-c3ccc(F)nc3)c(OC3CCOC3)nc2s1 (stereo not shown) [Example 76, 1-ethyl-3-[6-(6-fluoropyridin-3-yl)-5-(tetrahydrofuran-3-yloxy)[1,3]thiazolo[5,4-b]pyridin-2-yl]urea]	0.5 (≈ 1.24 µM)			3.54		
C=CCNC(=O)Nc1nc2cc(-c3cccnc3)c(OCCOC)nc2s1 [Example 29, 1-[5-(2-methoxyethoxy)-6-pyridin-3-yl[1,3]thiazolo[5,4-b]pyridin-2-yl]-3-prop-2-en-1-ylurea]	4 (≈ 10.4 µM)	1.22 (≈ 3.16 µM)	0.152 (≈ 0.395 µM)			
CCNC(=O)Nc1nc2cc(-c3ccc(F)nc3)c(OC(C)C)nc2s1 [Example 74, 1-ethyl-3-[6-(6-fluoropyridin-3-yl)-5-(1-methylethoxy)[1,3]thiazolo[5,4-b]pyridin-2-yl]urea]	1 (≈ 2.66 µM)			10		
CCNC(=O)Nc1nc2cc(-c3ccc(F)nc3)c(OCC3CCOC3)nc2s1 (stereo not shown) [Example 40, 1-ethyl-3-[6-(6-fluoropyridin-3-yl)-5-(tetrahydrofuran-3-ylmethoxy)[1,3]thiazolo[5,4-b]pyridin-2-yl]urea]	0.354 (≈ 0.847 µM)	0.571 (≈ 1.37 µM)	0.0714 (≈ 0.171 µM)			
CCNC(=O)Nc1nc2cc(-c3cnc(C(F)(F)F)nc3)c(OCC3CCOC3)nc2s1 (stereo not shown) [Example 77, 1-ethyl-3-{5-(tetrahydrofuran-3-ylmethoxy)-6-[2-(trifluoromethyl)pyrimidin-5-yl][1,3]thiazolo[5,4-b]pyridin-2-yl}urea]	2.83 (≈ 6.04 µM)			2.9		
CCNC(=O)Nc1nc2cc(-c3cncnc3)c(OCC3CCOC3)nc2s1 (stereo not shown) [Example 36, 1-ethyl-3-[6-pyrimidin-5-yl-5-(tetrahydrofuran-3-ylmethoxy)[1,3]thiazolo[5,4-b]pyridin-2-yl]urea]	0.0544 (≈ 0.136 µM)	0.125 (≈ 0.312 µM)	0.0625 (≈ 0.156 µM)			
CCNC(=O)Nc1nc2cc(-c3cccnc3)cnc2s1 [Example 5, 1-Ethyl-3-(6-pyridin-3-yl-thiazolo [5,4-b]pyridin-2-yl)-urea]		8.83 (≈ 29.5 µM)	1.56 (≈ 5.21 µM)			
